Molecular target: T1, human ANO6 (variant 5) (Homo sapiens, UniProt Q4KMQ2)
T1 construct: expressed in transfected cells; host or cells: Fischer rat thyroid (FRT) cells
T1 sequence (Q4KMQ2 1-931 isoform Q4KMQ2-2): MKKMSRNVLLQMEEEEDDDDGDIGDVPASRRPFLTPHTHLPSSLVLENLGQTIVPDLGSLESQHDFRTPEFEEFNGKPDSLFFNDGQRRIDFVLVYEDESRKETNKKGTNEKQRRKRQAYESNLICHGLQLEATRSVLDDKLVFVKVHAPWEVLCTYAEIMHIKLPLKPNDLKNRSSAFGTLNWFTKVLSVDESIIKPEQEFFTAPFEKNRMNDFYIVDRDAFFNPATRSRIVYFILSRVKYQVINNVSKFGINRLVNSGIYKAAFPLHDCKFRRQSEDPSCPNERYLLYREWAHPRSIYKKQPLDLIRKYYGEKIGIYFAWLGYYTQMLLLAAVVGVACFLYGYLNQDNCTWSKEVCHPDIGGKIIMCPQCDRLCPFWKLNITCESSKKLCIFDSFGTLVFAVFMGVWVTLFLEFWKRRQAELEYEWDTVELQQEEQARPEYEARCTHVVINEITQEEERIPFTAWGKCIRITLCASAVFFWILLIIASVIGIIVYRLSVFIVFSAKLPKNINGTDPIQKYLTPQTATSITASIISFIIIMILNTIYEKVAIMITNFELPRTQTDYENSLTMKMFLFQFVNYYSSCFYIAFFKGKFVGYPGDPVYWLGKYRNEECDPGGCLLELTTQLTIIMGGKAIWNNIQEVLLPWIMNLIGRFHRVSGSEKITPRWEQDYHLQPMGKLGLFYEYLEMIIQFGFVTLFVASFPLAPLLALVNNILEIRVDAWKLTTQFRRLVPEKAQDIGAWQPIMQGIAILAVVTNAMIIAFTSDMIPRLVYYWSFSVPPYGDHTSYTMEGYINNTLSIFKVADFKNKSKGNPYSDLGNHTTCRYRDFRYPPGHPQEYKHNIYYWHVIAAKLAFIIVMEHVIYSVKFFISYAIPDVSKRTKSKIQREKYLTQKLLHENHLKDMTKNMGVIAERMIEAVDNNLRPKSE
Experiment: Lact C2 assay (measuring phosphatidylserine externalization scramblase function)
Assay type: cell-based
Conditions: FRT cells expressing human ANO6 (variant 5), ionomycin 10 µM, Lact-C2-GFP fluorescence, average of three tests; for inhibition at 0.05 µM / inhibition at 0.1 µM / inhibition at 1 µM: FRT; for inhibition at 0.05 µM: read-out: % Inhibition 50 nM; for inhibition at 1 µM: compound 1 µM, read-out: % Inhibition 1 µM
Experimental: Ionomycin (Alomonelab, cat. # I-700), DAPI (Sigma- Aldrich, cat. # D8417), paraformaldehyde (Biosesang, cat. #P2031), Lionheart FX automated fluorescence microscope (BioTek), Gen5™ software program (BioTek), and Image J analysis software program.
After the incubation, the cells were treated with compounds dissolved in DMSO to 1% v/v in each well at each concentration (50 nM, 100 nM, and 1 µM) and reacted for 10 minutes. Thereafter, each well was treated with ionomycin to a final concentration of 10 µM, allowed to react for 10 minutes, and then washed with 200 µL PBS. After washing, each well was treated with 50 µL of Lactadherin-C2 (Lact-C2)-GFP mixed in DMEM medium to a final concentration of 500 nM to stain phosphatidylserine, and cultured at 37°C for 10 minutes. After completion of the reaction, the cells were washed with 200 µL PBS, and fixed with 4% paraformaldehyde for 5 minutes at room temperature. For morphological analysis, DAPI solution was added, and the cells were incubated for 15 minutes, followed by washing with PBS. The fluorescence intensity of Lact-C2-GFP bound to phosphatidylserine on the cell surface was measured using an automated fluorescence microscope. For quantitative analysis of the fluorescence intensity of Lact-C2-GFP, BioTek Gen5™ software and Image J analysis software programs were used.
Phosphatidylserine externalization inhibitory activity (%) by the compound was calculated through the following analysis method. Specifically, the background fluorescence value was subtracted from the measured Lact-C2-GFP fluorescence value, and the fluorescence value of the ionomycin non-treatment group and the ionomycin-treatment group in the same row where each test group was located in a 96-well microplate were calculated. In order to calculate the inhibitory activity (%) by the compound, the relative inhibitory activity was calculated by setting the compound and ionomycin non-treatment group to 100% inhibitory activity and the ionomycin alone treatment group to 0% inhibitory activity.

| SMILES | inhibition at 0.05 µM (compound 50 nM) [%] | inhibition at 0.1 µM (compound 100 nM) [%] | inhibition at 1 µM [%] | further results |
| --- | --- | --- | --- | --- |
| Fc1ccc2nc(-c3cccc(Nc4ncc(-c5cccnn5)cn4)c3)[nH]c2c1 [Example 55, N-(3-(6-fluoro-1H-benzo[d]imidazol-2-yl)phenyl)-5-(pyridazin-3-yl)pyrimidin-2-amine] |  |  |  | % Inhibition 50 nM (compound 50 nM): A (> 60% inhibition); % Inhibition 100 nM (compound 100 nM): A (> 60% inhibition) |
| FC(F)(F)c1ccc2nc(-c3cccc(Nc4ccc(-c5ccccn5)cn4)c3)[nH]c2c1 [Example 57, N-{3-[6-(trifluoromethyl)-1H-benzo[d]imidazol-2-yl]phenyl}-[2,3'-bipyridin]-6'-amine] | > 60 | > 60 |  |  |
| c1ccc(-c2ccc(Nc3cccc(-c4nc5ccccc5[nH]4)c3)nc2)nc1 [Example 59, N-[3-(1H-benzo[d]imidazol-2-yl)phenyl]-[2,3'-bipyridin]-6'-amine] | > 60 | > 60 |  |  |
| FC(F)(F)c1ccc2nc(-c3cccc(Nc4ncc(-c5ncccn5)cn4)c3)[nH]c2c1 [Example 63, N-{3-[6-(trifluoromethyl)-1H-benzo[d]imidazol-2-yl]phenyl}-[2,5'-bipyrimidin]-2'-amine] | > 60 | > 60 |  |  |
| Clc1cc2[nH]c(-c3cccc(Nc4ncc(-c5ccccn5)cn4)c3)nc2cn1 [Example 64, N-(3-(6-chloro-1H-imidazolo[4,5-c]pyridin-2-yl)phenyl)-5-(pyridin-2-yl)pyrimidin-2-amine] | 30 to 60 | 30 to 60 |  |  |
| c1cc(Nc2ccc(-c3ccncn3)cn2)cc(-c2nc3ccccc3[nH]2)c1 [Example 68, N-[3-(1H-benzo[d]imidazol-2-yl)phenyl]-5-(pyrimidin-4-yl)pyridin-2-amine] | > 60 | > 60 |  |  |
| c1cnc(-c2ccc(Nc3cccc(-c4nc5ccccc5[nH]4)c3)nc2)nc1 [Example 69, N-(3-(lH-benzo[d]imidazol-2-yl)phenyl)-5-(pyrimidin-2-yl)pyridin-2-amine] |  | 30 to 60 |  |  |
| Clc1ccc2nc(-c3cccc(Nc4ncc(-c5ccccn5)cn4)c3)[nH]c2c1 [Example 82, N-[3-(6-chloro-1H-benzo[d]imidazol-2-yl)phenyl]-5-(2-pyridyl)pyrimidin-2-amine] | > 60 |  |  |  |
| FC(F)(F)c1ccc2nc(-c3cccc(Nc4ncc(-c5ccccn5)cn4)c3)[nH]c2c1 [Example 83, 5-(2-pyridyl)-N-[3-[6-(trifluoromethyl)-1H-benzo[d]imidazol-2-yl]phenyl]pyrimidin-2-amine] | > 60 |  |  |  |
| FC(F)(F)c1ccc2nc(-c3cccc(Nc4ccc(-c5ccncn5)cn4)c3)[nH]c2c1 [Example 88, 5-pyrimidin-4-yl-N-[3-[6-(trifluoromethyl)-1H-benzo[d]imidazol-2-yl]phenyl]pyridin-2-amine] | > 60 |  | > 60 |  |
| FC(F)(F)c1cc2[nH]c(-c3cccc(Nc4ccc(-c5ccncn5)cn4)c3)nc2cn1 [Example 89, 5-pyrimidin-4-yl-N-[3-[6-(trifluoromethyl)-1H-imidazo[4,5-c]pyridin-2-yl]phenyl]pyridin-2-amine] | 30 to 60 |  | > 60 |  |
| c1cc(Nc2ccc(C3CCCCC3)cc2)cc(-c2nc3ccccc3[nH]2)c1 [Example 97, 3-(1H-benzo[d]imidazol-2-yl)-N-(4-cyclohexylphenyl)aniline] |  |  | > 60 |  |

Second part, led by results:

| inhibition at 0.05 µM (compound 50 nM) [%] | inhibition at 0.1 µM (compound 100 nM) [%] | inhibition at 1 µM [%] | SMILES | further results |
| --- | --- | --- | --- | --- |
| 30 to 60 | > 60 |  | c1cc(Nc2ccc(-c3cccnn3)cn2)cc(-c2nc3ccccc3[nH]2)c1 [Example 56, N-[3-(1H-benzo[d]imidazol-2-yl)phenyl]-5-(pyridazin-3-yl)pyridin-2-amine] |  |
| > 60 | > 60 |  | Fc1ccc2nc(-c3cccc(Nc4ccc(-c5ccccn5)cn4)c3)[nH]c2c1 [Example 58, N-(3-(6-fluoro-1H-benzo[d]imidazol-2-yl)phenyl)-[2,3'-bipyridine]-6'-amine] |  |
| > 60 | > 60 |  | COC(=O)c1ccc2nc(-c3cccc(Nc4ccc(-c5cccnn5)cc4)c3)[nH]c2c1 [Example 61, methyl 2-(3-((4-(pyridazin-3-yl)phenyl)amino)phenyl)-1H-benzo[d]imidazol-6-carboxylate] |  |
| > 60 | > 60 |  | Fc1ccc2nc(-c3cccc(Nc4ccc(-c5ccncn5)cn4)c3)[nH]c2c1 [Example 72, N-(3-(6-fluoro-1H-benzo[d]imidazol-2-yl)phenyl)-5-(pyrimidin-4-yl)pyridin-2-amine] |  |
|  |  | > 60 | COC(=O)c1ccc2nc(-c3cccc(Nc4ccc(-c5ncccn5)cc4)c3)[nH]c2c1 [Example 78, methyl 2-(3-((4-(pyrimidin-2-yl)phenyl)amino)phenyl)-1H-benzo[d]imidazol-6-carboxylate] |  |
| > 60 |  |  | FC(F)(F)c1cc2[nH]c(-c3cccc(Nc4ccc(-c5cccnn5)cc4)c3)nc2cn1 [Example 79, N-(4-(pyridazin-3-yl)phenyl)-3-(6-(trifluoromethyl)-1H-imidazolo[4,5-c]pyridin-2-yl)aniline] |  |
| > 60 |  |  | Fc1cc2nc(-c3cccc(Nc4ccc(-c5cccnn5)cc4)c3)[nH]c2cc1F [Example 81, 3-(5,6-difluoro-1H-benzo[d]imidazol-2-yl)-N-(4-pyridazin-3-ylphenyl)aniline] |  |
|  |  | > 60 | Clc1cc2[nH]c(-c3cccc(Nc4ccc(-c5cccnn5)cc4)c3)nc2cn1 [Example 84, 3-(6-chloro-1H-imidazo[4,5-c]pyridin-2-yl)-N-(4-pyridazin-3-ylphenyl)aniline] |  |
|  |  | > 60 | FC(F)(F)c1cc2[nH]c(-c3cccc(Nc4ccc(-c5ccncn5)cc4)c3)nc2cn1 [Example 86, N-(4-pyrimidin-4-ylphenyl)-3-[6-(trifluoromethyl)-1H-imidazo[4,5-c]pyridin-2-yl]aniline] |  |
| > 60 |  | > 60 | Fc1ccc2nc(-c3cccc(Nc4ccc(-c5ccccn5)cc4)c3)[nH]c2c1 [Example 92, 3-(6-fluoro-1H-benzo[d]imidazol-2-yl)-N-[4-(2-pyridyl)phenyl]aniline] |  |
| 30 to 60 |  | > 60 | Cc1noc(-c2ccc3nc(-c4cccc(Nc5ccc(-c6cccnn6)cc5)c4)[nH]c3c2)n1 [Example 93, 3-(6-(3-methyl-1,2,4-oxadiazol-5-yl)-1H-benzo[d]imidazol-2-yl)-N-(4-(pyridazin-3-yl)phenyl)aniline] |  |
|  |  | > 60 | c1cc(Nc2ccc(-c3ccnnc3)cc2)cc(-c2nc3ccccc3[nH]2)c1 [Example 94, 3-(1H-benzo[d]imidazol-2-yl)-N-(4-pyridazin-4-ylphenyl)aniline] |  |
| > 60 |  | > 60 | Fc1cc2nc(-c3cccc(Nc4ccc(-c5ccncn5)cc4)c3)[nH]c2cc1F [Example 95, 3-(5,6-difluoro-1H-benzo[d]imidazol-2-yl)-N-(4-pyrimidin-4-ylphenyl)aniline] |  |
| > 60 |  | > 60 | Fc1ccc2nc(-c3cccc(Nc4ccc(-c5ccncn5)cc4)c3)[nH]c2c1 [Example 96, 3-(6-fluoro-1H-benzo[d]imidazol-2-yl)-N-(4-pyrimidin-4-ylphenyl)aniline] |  |
